Source: patent US20170368082A1, “FORMULATIONS OF BRINCIDOFOVIR” (priority 2016, published 2017)

Assay: Blood and plasma pharmacokinetics of total radioactivity after IV or oral [^14C]brincidofovir
Type: in vivo, male Sprague Dawley and Long-Evans rats
Description: The study utilized 4 groups of male SD rats (albino), and 3 groups of male LE rats (pigmented); a total of 39 rats. All animals were obtained from Hilltop Lab Animals, Inc. (Scottdale, Pa.). Rats weighed between 214 and 265 g at dosing. Rats in Groups 1, 2, 3, and 4 were administered a single 2-hour (h) IV infusion of [^14C]brincidofovir at a target dose of 15 mg/kg. Rats in Group 5 were administered a single 2-h IV infusion of [^14C]brincidofovir at a target dose of 2 mg/kg. Rats in Group 6, and 7 were administered a single oral gavage administration of [^14C]brincidofovir at a target dose of 15 mg/kg. Three dosing formulations (one for high dose IV, one for low dose IV, and one for PO dose) were prepared at QPS on the day of dosing. The IV formulation for Groups 1, 2, 3, and 4 contained a vehicle of 10 mM sodium phosphate buffer in 5% dextrose solution at pH 8.0(±0.1). The IV formulation for Group 5 contained a vehicle of 16 mM sodium phosphate buffer in 5% dextrose solution at pH 8.0(±0.1), and the PO dosing formulation contained a vehicle of 12.5 mM sodium phosphate buffer at pH 8.0(±0.1). The IV dose formulation for Group 5 and the PO dose formulation for Groups 6 and 7 contained higher concentration of buffer so that the final buffer concentration was approximately 10 mM in all dose formulations.
Blood was collected from each animal in Group 2 (IV infusion) for plasma and blood analysis at the times listed below.
Terminal blood samples were collected by cardiac puncture into pre-labeled blood collection tubes that contained K2EDTA as an anticoagulant. A terminal sample (N=1 per time point) was collected at 0.5, 1, 2, 4, 8, 24, and 72 h after initiation of infusion and the volume was not limited. Triplicate weighed aliquots of blood (0.100 g) were removed and analyzed for total radioactivity using combustion followed by LSC. Blood aliquots were maintained at approximately 4° C. until analysis. The remaining blood samples were maintained on wet ice (approximately 4° C.) and then centrifuged to obtain plasma within 1 h of the blood collection time. Centrifuge settings were recorded in the study notebook. Duplicate aliquots of plasma (0.050 mL) were analyzed for radioactivity using direct counting by LSC, and residual plasma was stored at approximately −70° C. and was saved for possible future analysis under a separate study protocol. Residual red blood cells and the animal carcasses of Group 2 rats were discarded as radioactive waste.
Each rat was deeply anesthetized via isoflurane anesthesia, a blood sample was collected by cardiocentesis (approximately 2 mL) into tubes that contained K2EDTA as the anticoagulant, and the rat was euthanized by being frozen in a hexane/solid carbon dioxide bath for at least 15 min. The blood samples were maintained on wet ice (approximately 4° C.) and then centrifuged to obtain plasma within 1 h of the blood collection time. Centrifuge settings were recorded in the study notebook. Duplicate aliquots of plasma (0.050 mL) were analyzed for radioactivity using direct counting by LSC, and residual plasma was stored at approximately −70° C. and was saved for possible future analysis under a separate study protocol. Residual red blood cells were discarded as radioactive waste.
Triplicate weighed aliquots (˜0.100 g) of blood aliquots (Group 2 only) were combusted in the Packard Sample Oxidizer, followed by LSC analysis.
Urine (0.300 mL), and plasma (0.050 mL) specimens were thawed, if necessary, then aliquoted in duplicate by volume and analyzed by LSC. Volumes or weights of sample aliquots were documented in the study records. Ultima Gold scintillation fluid (5 mL, PerkinElmer) was added to each urine, and plasma aliquot, aliquot were mixed thoroughly, and then analyzed by LSC for radioactivity.

[1] = Plasma (LSC), PO 15 mg/kg, Group 7
[2] = Plasma (by LSC), 15 mg/kg, Group 7 vs Group 4
[3] = 0.5 h, SD rats Group 2, 15 mg/kg IV
[4] = 1 h, SD rats Group 2, 15 mg/kg IV
[5] = 2 h, SD rats Group 2, 15 mg/kg IV
[6] = 4 h, SD rats Group 2, 15 mg/kg IV
[7] = 8 h, SD rats Group 2, 15 mg/kg IV
[8] = 24 h, SD rats Group 2, 15 mg/kg IV
[9] = 72 h, SD rats Group 2, 15 mg/kg IV
[10] = Blood, SD rats Group 2, 15 mg/kg IV
[11] = Plasma, SD rats Group 2, 15 mg/kg IV
[12] = SD rats Group 2, 15 mg/kg 2-h IV

CCCCCCCCCCCCCCCCOCCCOP(=O)(O)CO[C@H](CO)Cn1ccc(N)nc1=O [[^14C] brincidofovir]
AUCall [1]: 22.3885 μg equiv · h/g | AUCall Ratio (PO/IV) [2]: 0.62 | Cmax Ratio (PO/IV) [2]: 0.30 | AUCall (Plasma (by LSC), 2 h IV infusion 15 mg/kg, Group 4): 36.3690 μg equiv · h/g | Tissue Concentration (168 h) (Plasma (by LSC), 2 h IV infusion 15 mg/kg, Group 4, LLOQ 0.036): BQL | Tissue Concentration (168 h) (Plasma (by LSC), PO 15 mg/kg, Group 7, LLOQ 0.034): BQL

CCCCCCCCCCCCCCCCOCCCOP(=O)(O)CO[C@H](CO)Cn1ccc(N)nc1=O [[14C]brincidofovir]
AUCall [1]: 22.3885 μg equiv · h/g | Tmax [1]: 8 h

CCCCCCCCCCCCCCCCOCCCOP(=O)(O)CO[C@H](CO)Cn1ccc(N)nc1=O [[^14C]brincidofovir]
Plasma t1/2 (15 mg/kg PO): approximately 5 h | Blood Concentration [3]: 1.666 μg equiv/mL | Blood to Plasma Ratio [3]: 0.65 | Plasma Concentration [3]: 2557 ng/mL | Blood Concentration [4]: 3.017 μg equiv/mL | Blood to Plasma Ratio [4]: 0.65 | Plasma Concentration [4]: 4609 ng/mL | Blood Concentration [5]: 6.393 μg equiv/mL | Blood to Plasma Ratio [5]: 0.62 | Plasma Concentration [5]: 10297 ng/mL | Blood Concentration [6]: 3.845 μg equiv/mL | Blood to Plasma Ratio [6]: 0.72 | Plasma Concentration [6]: 5363 ng/mL | Blood Concentration [7]: 1.584 μg equiv/mL | Blood to Plasma Ratio [7]: 0.81 | Plasma Concentration [7]: 1961 ng/mL | Blood Concentration [8]: 0.294 μg equiv/mL | Blood to Plasma Ratio [8]: 1.26 | Plasma Concentration [8]: 234 ng/mL | Blood Concentration [9]: 0.057 μg equiv/mL | Blood to Plasma Ratio [9]: 1.27 | Plasma Concentration [9]: 45 ng/mL | Blood to Plasma Ratio (72 hours, 2 mg/kg IV): 1.42 | Blood to Plasma Ratio (72 hours, 15 mg/kg IV): 3.06 | AUCall [10]: 50.836 μg equiv-h/mL | AUCinf—obs [10]: 52.028 μg equiv-h/mL | AUClast [10]: 50.836 μg equiv-h/mL | Cmax [10]: 6.393 μg equiv/mL | Tmax [10]: 2 h | t1/2 [10]: 14.5 h | Blood to Plasma Ratio (Group 2 SD rats, 24 h): 1.26 | Blood to Plasma Ratio (Group 2 SD rats, 72 h): 1.27 | Blood:Plasma Ratio (Group 3/SD, IV 15 mg/kg, 2 h): 0.96 | Blood:Plasma Ratio (Group 3/SD, IV 15 mg/kg, 24 h): 1.23 | Blood:Plasma Ratio (Group 4/LE, IV 15 mg/kg, 1 h): 1.10 | Blood:Plasma Ratio (Group 4/LE, IV 15 mg/kg, 2 h): 1.08 | Blood:Plasma Ratio (Group 4/LE, IV 15 mg/kg, 4 h): 0.92 | Blood:Plasma Ratio (Group 4/LE, IV 15 mg/kg, 8 h): 1.39 | Blood:Plasma Ratio (Group 4/LE, IV 15 mg/kg, 24 h): 1.46 | Blood:Plasma Ratio (Group 4/LE, IV 15 mg/kg, 72 h): 3.06 | Blood:Plasma Ratio (Group 5/LE, IV 2 mg/kg, 2 h): 0.89 | Blood:Plasma Ratio (Group 5/LE, IV 2 mg/kg, 8 h): 1.03 | Blood:Plasma Ratio (Group 5/LE, IV 2 mg/kg, 24 h): 1.41 | Blood:Plasma Ratio (Group 5/LE, IV 2 mg/kg, 72 h): 1.25 | Blood:Plasma Ratio (Group 6/SD, PO 15 mg/kg, 2 h): 0.64 | Blood:Plasma Ratio (Group 6/SD, PO 15 mg/kg, 24 h): 0.78 | Blood:Plasma Ratio (Group 7/LE, PO 15 mg/kg, 1 h): 1.13 | Blood:Plasma Ratio (Group 7/LE, PO 15 mg/kg, 2 h): 0.98 | Blood:Plasma Ratio (Group 7/LE, PO 15 mg/kg, 4 h): 0.80 | Blood:Plasma Ratio (Group 7/LE, PO 15 mg/kg, 8 h): 0.76 | Blood:Plasma Ratio (Group 7/LE, PO 15 mg/kg, 24 h): 0.87 | Blood to Plasma Ratio (IV infusion, 1 to 24 hours after start): 0.89-1.46 | Blood to plasma ratio, median (IV or oral): 1.00 | Plasma AUClast (LE rats, 15 mg/kg PO): 21.0 μg equiv·h/mL | Plasma Cmax of total radioactivity (LE rats, 15 mg/kg PO): 1.5 μg equiv/mL | Plasma Tmax (LE rats, 15 mg/kg PO): 8 h | Plasma concentration at 24 h post-dose (LE rats, 15 mg/kg PO): 0.180 μg equiv/mL | Blood to Plasma Ratio (PO, LE rats, 1 h to 24 h): 0.76-1.13 | AUCall [11]: 64.448 μg equiv-h/mL | AUCinf—obs [11]: 65.292 μg equiv-h/mL | AUClast [11]: 64.448 μg equiv-h/mL | Cmax [11]: 10.297 μg equiv/mL | Tmax [11]: 2 h | t1/2 [11]: 13.0 h | Plasma AUClast [12]: 64.4 μg equiv·h/mL | Plasma Cmax of total radioactivity [12]: 10.3 μg equiv/mL | Plasma Tmax [12]: 2 h | Plasma concentration at 72 h post-dose [12]: 0.045 μg equiv/mL | Plasma t1/2 [12]: 13.0 h | Oral bioavailability of radioactivity (AUCall PO/AUCall IV) (blood): 48% | Radioactive bioavailability (oral): approximately 50% | Blood:Plasma Ratio (oral administration, up to 24 h (Groups 6-7)): 0.64-1.13 | Oral bioavailability of radioactivity (AUCall PO/AUCall IV) (plasma): 61%
